Experimental data reported in US20210052705A1, “METHOD OF DRUG […] FOR PTH, PTHrP AND RELATED PEPTIDES” (Radius Health, Inc., priority 2011, published 2021).
Like-named read-outs stand apart in the source and are kept apart here.

How the values were obtained:
[1] = set-up: AUCR: unit not given beside the values; details: in vivo
clinical = details: female, human, in vivo; for AUC(0-inf): AUC0-inf; for Tmax: Tmax (Median); for half-life: t1/2
Procedure: This study was conducted at 1 study site and consisted of 3 study periods. […] Application sites were to be either periumbilical or upper thigh regions each with 2 wear times of 10 seconds and 15 minutes. […] Application sites were to be either periumbilical with 10 second and 15 minute wear times or upper thigh regions with a 15 minute wear time. […] Application times were to included 30 seconds, 1, 5, 15, 60 minutes, and 24 hours. New subjects were to be enrolled in each study period.

in vivo [2] = details: rat, sc, 20 ug/kg
Procedure: Certain drug coated microarrays were tested in vivo in a preclinical model using Sprague Dawley rats. […] Male Sprague Dawley rats with jugular vein catheters were purchased from Charles River Laboratories. Once received, they were acclimated for at least 24 hours prior to dosing.
Typically, one hour prior to dosing microneedle arrays were removed from refrigeration (approximately 4° C.) and allowed to equilibrate to room temperature.
The standard procedure for skin preparation and microneedle array application is as follows.
One day prior to dosing, an area just above the hind legs on the dorsal surface of the rat was shaved using electric clippers. Nair® hair removal lotion (Church & Dwight Co.) was then applied to the area for 5 to 8 minutes to remove remaining fur stubble. The Nair® lotion was then thoroughly removed using a damp cloth. The next day a microneedle array was applied using a spring-loaded applicator. The microneedle array was left in contact with skin for five minutes, before being removed. During array application and contact time the rats were manually restrained.
Blood was collected at three time points from each animal out of a possible total of five time destinations (5 minutes, 15 minutes, 30 minutes, 45 minutes, 90 minutes) from each rat on a staggered schedule so that all time points would be represented with extra sampling at 15 minutes without overdrawing from any animal. Approximately 1 mL of blood was collected via the catheter from the jugular vein using a syringe and needle from rats for their first two blood draws. For the terminal blood collection, animals were euthanized via CO2 chamber and approximately 1 mL of blood was collected via cardiac puncture. The blood was immediately transferred to a serum separator tube that contained 25 μL of a 2.5 mg/ml aprotinin (Sigma) solution.
Blood was collected from each rat 5, 10, 15, 30 and 45 minutes post dose. Approximately 600 μL of blood was collected via the catheter from the jugular vein using a syringe and needle from rats for their first four blood draws. For the terminal blood collection, animals were euthanized via CO2 chamber and approximately 600 μL of blood was collected via cardiac puncture. The blood was immediately transferred to a serum separator tube that contained 12 μL of a 2.5 mg/ml aprotinin (Sigma) solution.
Blood was collected three or four times from each rat at the time points depicted in the tables below. Approximately 1 mL of blood was collected via the catheter from the jugular vein using a syringe and needle from rats for any non-terminal time points. For the terminal blood collection, animals were euthanized via CO2 chamber and approximately 1 mL of blood was collected via cardiac puncture. The blood was immediately transferred to a serum separator tube that contained 20 μL of a 2.5 mg/ml aprotinin (Sigma) solution.
Blood was collected from each rat 5, 15, 30, 45, 90 and 120 minutes post dose. Approximately 500 μL of blood was collected via the catheter from the jugular vein using a syringe and needle from rats for their first five blood draws. For the terminal blood collection, animals were euthanized via CO2 chamber and approximately 500 μL of blood was collected via cardiac puncture.

in vivo [3] = details: female, Sprague Dawley, rat, sc
Procedure: On day 14 of dosing approximately 3 mL of blood was collected 15 minutes post dose. The blood was immediately transferred to a serum separator tube that contained 60 μL of a 2.5 mg/mL aprotinin (Sigma) solution. The blood was kept at room temperature for approximately 45 minutes to allow it to clot. Once clotted, the blood was centrifuged at 2500 rpm for 10 minutes. Serum was stored at −80° C.

CC[C@H](C)[C@H](NC(=O)[C@H](CO)NC(=O)[C@H](CCCCN)NC(=O)CNC(=O)[C@H](CCCCN)NC(=O)[C@H](CC(=O)O)NC(=O)[C@H](Cc1cnc[nH]1)NC(=O)[C@H](CC(C)C)NC(=O)[C@H](CC(C)C)NC(=O)[C@H](CCC(N)=O)NC(=O)[C@H](Cc1cnc[nH]1)NC(=O)[C@H](CCC(=O)O)NC(=O)[C@H](CO)NC(=O)[C@@H](NC(=O)[C@H](C)N)C(C)C)C(=O)N[C@@H](CCC(N)=O)C(=O)N[C@@H](CC(=O)O)C(=O)N[C@@H](CC(C)C)C(=O)N[C@@H](CCCNC(=N)N)C(=O)N[C@@H](CCCNC(=N)N)C(=O)N[C@@H](CCCNC(=N)N)C(=O)N[C@@H](CCC(=O)O)C(=O)N[C@@H](CC(C)C)C(=O)N[C@@H](CC(C)C)C(=O)N[C@@H](CCC(=O)O)C(=O)N[C@@H](CCCCN)C(=O)N[C@@H](CC(C)C)C(=O)N[C@@H](CC(C)C)C(=O)NC(C)(C)C(=O)N[C@@H](CCCCN)C(=O)N[C@@H](CC(C)C)C(=O)N[C@@H](Cc1cnc[nH]1)C(=O)N[C@H](C(=O)N[C@@H](C)C(N)=O)[C@@H](C)O
AUC0-inf/dose ([1]; 100 ug): 1.77 ± 0.869 pg·h/mL/µg | AUC0-tau/dose ([1]; 100 ug): 1.77 ± 0.868 pg·h/mL/µg | AUCR ([1]; 100 ug): 0.898 ± 0.0169 | CL/F ([1]; 100 ug): 666.2 ± 284.4 L/h | AUC0-inf/dose ([1]; sc): 7.92 ± 2.83 pg·h/mL/µg | AUC0-tau/dose ([1]; sc): 7.91 ± 2.83 pg·h/mL/µg | Mean Dose Normalized AUC0-inf, SC Dose ([1]; sc): 7.92 | AUC(0-inf) (clinical; 100 ug): 0.177 ± 0.0869 ng·h/mL | AUC(0-t) (clinical; 100 ug, AUC0-t): 0.154 ± 0.0693 ng·h/mL | AUC (clinical; 100 ug, AUC0-tau): 0.177 ± 0.0868 ng·h/mL | Cmax (clinical; 100 ug, Cmax): 0.317 ± 0.0806 ng/mL | Tmax (clinical; 100 ug): 12.1 min | Vd/F (clinical; 100 ug): 366 ± 128 L | half-life (clinical; 100 ug): 24.1 ± 7.56 min | AUC(0-inf) (clinical; 150 ug): 0.269 ± 0.265 ng·h/mL | Tmax (clinical; 150 ug): 9.84 min | half-life (clinical; 150 ug): 34.1 ± 28.3 min | Tmax (clinical): 7.8 min | Vd/F (clinical): 491 ± 208 L | CL/F (clinical; sc): 2340 mL/min | Tmax (clinical; sc): 25.3 min | Vd/F (clinical; sc): 197 ± 86.2 L | half-life (clinical; sc): 58.2 ± 11.1 min | half-life (clinical): 28 ± 25 min | CL/F (clinical; topical or ocular, 100 ug): 6710 mL/min

CC[C@H](C)[C@H](NC(=O)[C@H](CO)NC(=O)[C@H](CCCCN)NC(=O)CNC(=O)[C@H](CCCCN)NC(=O)[C@H](CC(=O)O)NC(=O)[C@H](Cc1cnc[nH]1)NC(=O)[C@H](CC(C)C)NC(=O)[C@H](CC(C)C)NC(=O)[C@H](CCC(N)=O)NC(=O)[C@H](Cc1cnc[nH]1)NC(=O)[C@H](CCC(=O)O)NC(=O)[C@H](CO)NC(=O)[C@@H](NC(=O)[C@H](C)N)C(C)C)C(=O)N[C@@H](CCC(N)=O)C(=O)N[C@@H](CC(=O)O)C(=O)N[C@@H](CC(C)C)C(=O)N[C@@H](CCCNC(=N)N)C(=O)N[C@@H](CCCNC(=N)N)C(=O)N[C@@H](CCCNC(=N)N)C(=O)N[C@@H](CCC(=O)O)C(=O)N[C@@H](CC(C)C)C(=O)N[C@@H](CC(C)C)C(=O)N[C@@H](CCC(=O)O)C(=O)N[C@@H](CCCCN)C(=O)N[C@@H](CC(C)C)C(=O)N[C@@H](CC(C)C)C(=O)NC(C)(C)C(=O)N[C@@H](CCCCN)C(=O)N[C@@H](CC(C)C)C(=O)N[C@@H](Cc1cnc[nH]1)C(=O)N[C@H](C(=O)N[C@@H](C)C(N)=O)[C@@H](C)O [reference SC]
Cmax (in vivo [2]; Cmax): 8.9 ng/mL | Tmax (in vivo [2]; Tmax): 10 min | half-life (in vivo [2]; t1/2): 31 min | level at 0.25 h (in vivo [3]): 0.0108 ± 0.0036 ng/mL
